Experiments:
Type in all cases: functional, Mus musculus
AML12 [1] = assay: Protection against acetaminophen-induced acute liver injury in AML12 cells at 5 uM incubated for 12 hrs by MTT assay relative to control
AML12 [2] = assay: Protection against acetaminophen-induced acute liver injury in AML12 cells at 10 uM incubated for 12 hrs by MTT assay relative to control
AML12 [3] = assay: Cytoprotective activity against acetaminophen-induced acute liver injury in AML12 cells assessed as reduction in ALT level at 5 uM measured after 12 hrs relative to control; parameters: scale not given: the % may be the effect or the level left

| Structure (SMILES) | Activity (AML12 [1]) [%] | Activity (AML12 [2]) [%] | Activity (AML12 [3]) [%] |
| --- | --- | --- | --- |
| CC[C@@H](C)/C=C/C=C/C=C(\C)[C@@H]1Oc2c(-c3ccc(O)cc3)c[nH]c(=O)c2C(=O)[C@H]1C | -10 | -50 | – |
| COn1ccc2c(c1=O)[C@@H](O)[C@@H](C)[C@H](/C(C)=C/C=C/C=C/[C@H](C)CC(=O)O)O2 | 132 | 50 | 115 |
| CC[C@@H](C)/C=C/C=C/C=C(\C)[C@@H]1Oc2cc[nH]c(=O)c2[C@@H](O)[C@H]1C | 94 | -6.5 | 29 |
| CO[C@@H]1c2c(cc[nH]c2=O)O[C@@H](/C(C)=C/C=C/C=C/[C@H](CO)CCO)[C@@H]1C | 20 | 59 | 99 |
| CC[C@@H](/C=C/C=C/C=C(\C)[C@@H]1Oc2cc[nH]c(=O)c2[C@@H](OC)[C@H]1C)C(=O)O | 164 | -43 | 96 |
| CC[C@H](/C=C/C=C/C=C(\C)[C@@H]1Oc2cc[nH]c(=O)c2[C@@H](O)[C@H]1C)C(=O)O | 7 | 56 | 118 |
| C\C(=C/C=C/C=C/C(C)CC(=O)O)[C@@H]1Oc2cc[nH]c(=O)c2[C@@H](O)C1C (stereo partly specified) | 66 | 26 | 74 |
| CC[C@H](/C=C/C=C/C=C(\C)[C@@H]1Oc2ccn(OC)c(=O)c2[C@@H](O)[C@H]1C)CO | 61 | 64 | 71 |
| CO[C@@H]1c2c(cc[nH]c2=O)O[C@@H](/C(C)=C/C=C/C=C/[C@H](C)CC(=O)O)[C@@H]1C | 120 | 18 | 86 |
| CC[C@H](/C=C/C=C/C=C(\C)[C@@H]1Oc2ccn(OC)c(=O)c2[C@@H](O)[C@H]1C)C(=O)O | 74 | -14 | 52 |
| CC[C@H](/C=C/C=C/C=C(\C)[C@@H]1Oc2ccn(OC)c(=O)c2[C@@H](O)[C@H]1C)COC=O | 144 | 21 | 79 |
| CC[C@H](/C=C/C=C/C=C(\C)[C@@H]1Oc2cc[nH]c(=O)c2[C@@H](O)[C@H]1C)CO | 17 | 100 | 97 |
| CC[C@H](/C=C/C=C/C=C(\C)[C@@H]1Oc2cc[nH]c(=O)c2[C@@H](OC)[C@H]1C)COC=O | 15 | -32 | – |
| CC[C@H](/C=C/C=C/C=C(\C)[C@@H]1Oc2cc[nH]c(=O)c2[C@@H](OC)[C@H]1C)CO | 125 | 53 | 82 |
| CC[C@@H](C)/C=C/C=C/C=C(\C)[C@@H]1Oc2cc[nH]c(=O)c2[C@@H](OC)[C@H]1C | 30 | 192 | 54 |
| CC(=O)N[C@@H](CS)C(=O)O [ACETYLCYSTEINE] | 150 | 165 | 45 |

From ChEMBL document CHEMBL6121056, “Aculeapyridones A-Q, Pyranopyridone Alkaloids with Protective Effects against Acetaminophen-Induced Acute Liver Injury Discovered from a Coculture of Aspergillus aculeatinus WHUF0198 and a Penicillium sp” (2025)
